How the values were obtained:
[1] = biological target: T1, human FPR2 (Homo sapiens, UniProt P25090); assay: FPR2 cyclic adenosine monophosphate (cAMP) assay; assay type: cell-based; conditions: CHO cells overexpressing human FPR2; forskolin 5 μM; inhibition of cAMP production; HTRF; read-out: hFPR2 cAMP2 EC50
T1 sequence (P25090 1-351): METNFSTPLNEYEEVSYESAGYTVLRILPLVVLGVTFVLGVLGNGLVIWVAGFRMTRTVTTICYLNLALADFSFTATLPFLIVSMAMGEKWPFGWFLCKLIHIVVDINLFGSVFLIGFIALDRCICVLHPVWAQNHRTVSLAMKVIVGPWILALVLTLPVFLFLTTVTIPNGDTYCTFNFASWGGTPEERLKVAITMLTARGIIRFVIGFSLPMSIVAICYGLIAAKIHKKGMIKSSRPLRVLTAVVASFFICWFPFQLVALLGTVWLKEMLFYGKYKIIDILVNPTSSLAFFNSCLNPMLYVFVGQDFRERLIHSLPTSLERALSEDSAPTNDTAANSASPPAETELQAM
In short: (§1)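 CHO/hFPR1 4,000 cells/well, forskolin 10 μM final; CHO/hFPR2 2,000 cells/well, forskolin 5 μM final. IBMX 200 μM, DMSO 1%, DPBS + Ca/Mg + 0.1% BSA, 30 min rt. HTRF cAMP; 4-PL fit.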

[2] = biological target: T2, human FPR1 (Homo sapiens, UniProt P21462); assay: FPR1 cyclic adenosine monophosphate (cAMP) assay; assay type: cell-based; conditions: CHO cells overexpressing human FPR1; forskolin 10 μM; inhibition of cAMP production; HTRF; read-out: hFPR1 cAMP2 EC50
T2 sequence (P21462 1-350): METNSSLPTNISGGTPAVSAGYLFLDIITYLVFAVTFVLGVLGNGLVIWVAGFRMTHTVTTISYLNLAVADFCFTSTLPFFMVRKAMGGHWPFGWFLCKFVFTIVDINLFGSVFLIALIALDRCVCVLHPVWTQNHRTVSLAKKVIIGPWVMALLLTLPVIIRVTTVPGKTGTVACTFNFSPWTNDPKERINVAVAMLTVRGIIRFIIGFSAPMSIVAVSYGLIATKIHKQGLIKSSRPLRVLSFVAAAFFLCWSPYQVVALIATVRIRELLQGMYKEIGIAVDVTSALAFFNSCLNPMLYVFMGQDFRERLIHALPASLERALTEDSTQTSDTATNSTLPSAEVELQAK
In short: as §1

SMILES | EC50 [1] [nM] | EC50 [2] [nM]
COc1cc(C2CCCN(CCO)C2)nc(-n2c(=O)c(NC(=O)c3ccc(OC(F)F)cc3)c(-c3c(F)cc(OC)cc3F)n2C)c1 (centres unmarked) [Example 338, N-(5-(2,6-Difluoro-4-methoxyphenyl)-2-(6-(1-(2-hydroxyethyl)piperidin-3-yl)-4-methoxypyridin-2-yl)-1-methyl-3-oxo-2,3-dihydro-1H-pyrazol-4-yl)-4-(difluoromethoxy)benzamide] | 2 | > 10000
COc1cc(OCC2CCCO2)nc(-n2c(=O)c(NC(=O)c3ccc(OC(F)F)cc3)c(-c3c(F)cc(OC)cc3F)n2C)c1 (centres unmarked) [Example 339, N-(5-(2,6-Difluoro-4-methoxyphenyl)-2-(4-methoxy-6-((tetrahydrofuran-2-yl)methoxy)pyridin-2-yl)-1-methyl-3-oxo-2,3-dihydro-1H-pyrazol-4-yl)-4-(difluoromethoxy)benzamide] | 8 | > 10000
COc1cc(C2CCCN(CCO)C2)nc(-n2c(=O)c(NC(=O)c3ccc(OC(F)F)cc3)c(-c3c(F)cc(OC)cc3F)n2C)c1 (centres unmarked) [Example 340, N-(5-(2,6-Difluoro-4-methoxyphenyl)-2-(6-(1-(2-hydroxyethyl)piperidin-3-yl)-4-methoxypyridin-2-yl)-1-methyl-3-oxo-2,3-dihydro-1H-pyrazol-4-yl)-4-(difluoromethoxy)benzamide] | 10 | > 10000
COc1cc(F)c(-c2c(NC(=O)c3ccc(OC(F)F)cc3)c(=O)n(-c3cc(C#N)cc(C(F)(F)F)n3)n2C)c(F)c1 [Example 341, N-(2-(4-Cyano-6-(trifluoromethyl)pyridin-2-yl)-5-(2,6-difluoro-4-methoxyphenyl)-1-methyl-3-oxo-2,3-dihydro-1H-pyrazol-4-yl)-4-(difluoromethoxy)benzamide] | 10 | 2600
COc1cc(C2CCCN(C)C2)nc(-n2c(=O)c(NC(=O)c3ccc(OC(F)F)cc3)c(-c3c(F)cc(OC)cc3F)n2C)c1 (centres unmarked) [Example 342, N-(5-(2,6-Difluoro-4-methoxyphenyl)-2-(4-methoxy-6-(1-methylpiperidin-3-yl)pyridin-2-yl)-1-methyl-3-oxo-2,3-dihydro-1H-pyrazol-4-yl)-4-(difluoromethoxy)benzamide] | 2 | > 10000
COc1cc(C2CCCN(C)C2)nc(-n2c(=O)c(NC(=O)c3ccc(OC(F)F)cc3)c(-c3c(F)cc(OC)cc3F)n2C)c1 (centres unmarked) [Example 343, N-(5-(2,6-Difluoro-4-methoxyphenyl)-2-(4-methoxy-6-(1-methylpiperidin-3-yl)pyridin-2-yl)-1-methyl-3-oxo-2,3-dihydro-1H-pyrazol-4-yl)-4-(difluoromethoxy)benzamide] | 1 | > 10000
COc1cc(OCC2(C)COC2)nc(-n2c(=O)c(NC(=O)c3ccc(OC(F)F)cc3)c(-c3c(F)cc(OC)cc3F)n2C)c1 [Example 344, N-(5-(2,6-Difluoro-4-methoxyphenyl)-2-(4-methoxy-6-((3-methyloxetan-3-yl)methoxy)pyridin-2-yl)-1-methyl-3-oxo-2,3-dihydro-1H-pyrazol-4-yl)-4-(difluoromethoxy)benzamide] | 2 | 2400
COc1cc(C2CCOCC2)nc(-n2c(=O)c(NC(=O)c3ccc(OC(F)F)cc3)c(-c3c(F)cc(OC)cc3F)n2C)c1 [Example 345, N-(5-(2,6-Difluoro-4-methoxyphenyl)-2-(4-methoxy-6-(tetrahydro-2H-pyran-4-yl)pyridin-2-yl)-1-methyl-3-oxo-2,3-dihydro-1H-pyrazol-4-yl)-4-(difluoromethoxy)benzamide] | 5 | > 10000
COc1cc(C2CCCNC2)nc(-n2c(=O)c(NC(=O)c3ccc(OC(F)F)cc3)c(-c3c(F)cc(OC)cc3F)n2C)c1 (centres unmarked) [Example 346, N-(5-(2,6-Difluoro-4-methoxyphenyl)-2-(4-methoxy-6-(piperidin-3-yl)pyridin-2-yl)-1-methyl-3-oxo-2,3-dihydro-1H-pyrazol-4-yl)-4-(difluoromethoxy)benzamide] | 5 | > 10000
COc1cc(C2CCCNC2)nc(-n2c(=O)c(NC(=O)c3ccc(OC(F)F)cc3)c(-c3c(F)cc(OC)cc3F)n2C)c1 (centres unmarked) [Example 347, N-(5-(2,6-Difluoro-4-methoxyphenyl)-2-(4-methoxy-6-(piperidin-3-yl)pyridin-2-yl)-1-methyl-3-oxo-2,3-dihydro-1H-pyrazol-4-yl)-4-(difluoromethoxy)benzamide] | 4 | > 10000
COc1cc(F)c(-c2c(NC(=O)c3ccc(OC(F)F)cc3)c(=O)n(-c3cc(OCCO)cc(C(F)(F)F)n3)n2C)c(F)c1 [Example 348, N-(5-(2,6-Difluoro-4-methoxyphenyl)-2-(4-(2-hydroxyethoxy)-6-(trifluoromethyl)pyridin-2-yl)-1-methyl-3-oxo-2,3-dihydro-1H-pyrazol-4-yl)-4-(difluoromethoxy)benzamide] | 20 | 2200
COc1cc(F)c(-c2c(NC(=O)c3ccc(OC(F)F)cc3)c(=O)n(-c3cc(OCC4(C)COC4)cc(C(F)(F)F)n3)n2C)c(F)c1 [Example 349, N-(5-(2,6-Difluoro-4-methoxyphenyl)-1-methyl-2-(4-((3-methyloxetan-3-yl)methoxy)-6-(trifluoromethyl)pyridin-2-yl)-3-oxo-2,3-dihydro-1H-pyrazol-4-yl)-4-(difluoromethoxy)benzamide] | 22 | 94
COc1cc(OCC2CCCO2)nc(-n2c(=O)c(NC(=O)c3ccc(OC(F)F)cc3)c(-c3c(F)cc(OC)cc3F)n2C)c1 (centres unmarked) [Example 350, N-(5-(2,6-Difluoro-4-methoxyphenyl)-2-(4-methoxy-6-((tetrahydrofuran-2-yl)methoxy)pyridin-2-yl)-1-methyl-3-oxo-2,3-dihydro-1H-pyrazol-4-yl)-4-(difluoromethoxy)benzamide] | 9 | > 10000
COc1cc(OCC2CCOC2)nc(-n2c(=O)c(NC(=O)c3ccc(OC(F)F)cc3)c(-c3c(F)cc(OC)cc3F)n2C)c1 (centres unmarked) [Example 351, N-(5-(2,6-Difluoro-4-methoxyphenyl)-2-(4-methoxy-6-((tetrahydrofuran-3-yl)methoxy)pyridin-2-yl)-1-methyl-3-oxo-2,3-dihydro-1H-pyrazol-4-yl)-4-(difluoromethoxy)benzamide] | 2 | > 10000
COc1cc(F)c(-c2c(NC(=O)c3ccc(OC(F)F)cc3)c(=O)n(-c3cc(C)cc(OCC4CCOC4)n3)n2C)c(F)c1 (centres unmarked) [Example 352, N-(5-(2,6-Difluoro-4-methoxyphenyl)-1-methyl-2-(4-methyl-6-((tetrahydrofuran-3-yl)methoxy)pyridin-2-yl)-3-oxo-2,3-dihydro-1H-pyrazol-4-yl)-4-(difluoromethoxy)benzamide] | 6 | > 10000
COc1cc(F)c(-c2c(NC(=O)c3ccc(OC(F)F)cc3)c(=O)n(-c3cc(C)cc(OCC4(C)COC4)n3)n2C)c(F)c1 [Example 353, N-(5-(2,6-Difluoro-4-methoxyphenyl)-1-methyl-2-(4-methyl-6-((3-methyloxetan-3-yl)methoxy)pyridin-2-yl)-3-oxo-2,3-dihydro-1H-pyrazol-4-yl)-4-(difluoromethoxy)benzamide] | 2 | 1600
COc1cc(N2C[C@H]3C[C@@H]2CN3C)nc(-n2c(=O)c(NC(=O)c3ccc(OC(F)F)cc3)c(-c3c(F)cc(OC)cc3F)n2C)c1 [Example 354, N-(5-(2,6-Difluoro-4-methoxyphenyl)-2-(4-methoxy-6-((1R,4R)-5-methyl-2,5-diazabicyclo[2.2.1]heptan-2-yl)pyridin-2-yl)-1-methyl-3-oxo-2,3-dihydro-1H-pyrazol-4-yl)-4-(difluoromethoxy)benzamide] | 2 | > 10000
COc1cc(OC2CCOC2)nc(-n2c(=O)c(NC(=O)c3ccc(OC(F)F)cc3)c(-c3c(F)cc(OC)cc3F)n2C)c1 (centres unmarked) [Example 355, N-(5-(2,6-Difluoro-4-methoxyphenyl)-2-(4-methoxy-6-((tetrahydrofuran-3-yl)oxy)pyridin-2-yl)-1-methyl-3-oxo-2,3-dihydro-1H-pyrazol-4-yl)-4-(difluoromethoxy)benzamide] | 4 | > 10000
COc1cc(OC2CCOC2)nc(-n2c(=O)c(NC(=O)c3ccc(OC(F)F)cc3)c(-c3c(F)cc(OC)cc3F)n2C)c1 (centres unmarked) [Example 356, N-(5-(2,6-Difluoro-4-methoxyphenyl)-2-(4-methoxy-6-((tetrahydrofuran-3-yl)oxy)pyridin-2-yl)-1-methyl-3-oxo-2,3-dihydro-1H-pyrazol-4-yl)-4-(difluoromethoxy)benzamide] | 5 | > 10000

— patent publication US12577206B2 (BRISTOL-MYERS SQUIBB COMPANY, priority 2020, dated 2026)
